Assay results taken from PubChem BioAssay AID256 (DTP/NCI, 2004).
Where “and” joins values, the source holds several entries; their conditions need not be identical. Equal entries are not always repeated. Inconclusive results and toxic doses are left out. How the source made its calls: active means survival T/C of 150% or more; inactive means T/C below 125% in these data.

Test system: CD2F1 mice, L1210 leukemia ip, survival T/C
Test: NCI In Vivo Anticancer Drug Screen. Data for tumor model L1210 Leukemia (intraperitoneal) in CD2F1 (CDF1) mice
Settings: higher = longer survival
Method in brief: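 Compound-dosed mice with transplantable tumor versus matched vehicle controls; endpoint ratio T/C reported.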

[1] = endpoint: mean survival time, dose: 25.0 mg/kg/injection, schedule: Q01DX009 (ip), vehicle: saline with Tween-80
[2] = endpoint: mean survival time, dose: 50.0 mg/kg/injection, schedule: Q01DX009 (ip), vehicle: saline with Tween-80
[3] = endpoint: mean survival time, dose: 100.0 mg/kg/injection, schedule: Q04DX003 (ip), vehicle: saline with Tween-80
[4] = endpoint: mean survival time, dose: 100.0 mg/kg/injection, schedule: Q01DX001 (ip), vehicle: saline
[5] = endpoint: mean survival time, dose: 12.5 mg/kg/injection, schedule: Q01DX009 (ip), vehicle: saline with Tween-80
[6] = endpoint: mean survival time, dose: 200.0 mg/kg/injection, schedule: Q04DX003 (ip), vehicle: saline with Tween-80
[7] = endpoint: mean survival time, dose: 400.0 mg/kg/injection, schedule: Q04DX003 (ip), vehicle: saline with Tween-80
[8] = endpoint: mean survival time, dose: 50.0 mg/kg/injection, schedule: Q01DX009 (ip), vehicle: saline
[9] = endpoint: mean survival time, dose: 50.0 mg/kg/injection, schedule: Q04DX003 (ip), vehicle: saline

Measured: T/C

CCOC(=O)c1c(OC)cc2n(c1=O)Cc1cc3ccccc3nc1-2
inactive: [1] 98 % of control | [2] 98 % of control | endpoint: mean survival time, dose: 100.0 mg/kg/injection, schedule: Q01DX009 (ip), vehicle: saline with Tween-80 101 % of control | [3] 90 % of control

CCOc1ccc(-n2c(-c3ccc(Br)cc3)csc2=NC(=O)c2ccccc2F)cc1
inactive: [1] 92 % of control and 100 % of control | endpoint: mean survival time, dose: 25.0 mg/kg/injection, schedule: Q04DX003 (ip), vehicle: saline with Tween-80 88 % of control | [2] 88 % of control | endpoint: mean survival time, dose: 50.0 mg/kg/injection, schedule: Q04DX003 (ip), vehicle: saline with Tween-80 94 % of control | endpoint: mean survival time, dose: 100.0 mg/kg/injection, schedule: Q01DX001 (ip), vehicle: saline with Tween-80 93 % of control | [3] 92 % of control and 95 % of control | endpoint: mean survival time, dose: 200.0 mg/kg/injection, schedule: Q01DX001 (ip), vehicle: saline with Tween-80 91 % of control | endpoint: mean survival time, dose: 200.0 mg/kg/injection, schedule: Q01DX009 (ip), vehicle: saline with Tween-80 88 % of control and 90 % of control | endpoint: mean survival time, dose: 400.0 mg/kg/injection, schedule: Q01DX001 (ip), vehicle: saline with Tween-80 95 % of control | endpoint: mean survival time, dose: 400.0 mg/kg/injection, schedule: Q01DX009 (ip), vehicle: saline with Tween-80 90 % of control

Cc1ccc(C2=CSC3=NCCN23)cc1Cl
inactive: endpoint: median survival time, dose: 6.25 mg/kg/injection, schedule: Q01DX005 (ip), vehicle: saline 116 % of control | endpoint: median survival time, dose: 12.5 mg/kg/injection, schedule: Q01DX005 (ip), vehicle: saline 108 % of control | endpoint: median survival time, dose: 25.0 mg/kg/injection, schedule: Q01DX005 (ip), vehicle: saline 109 % of control | endpoint: median survival time, dose: 50.0 mg/kg/injection, schedule: Q01DX005 (ip), vehicle: saline 100 % of control

CC(=O)Oc1c(Br)cc2cc(Br)ccc2c1Br
inactive: endpoint: mean survival time, dose: 100.0 mg/kg/injection, schedule: Q04DX002 (ip), vehicle: saline with Tween-80 90 % of control | endpoint: mean survival time, dose: 200.0 mg/kg/injection, schedule: Q04DX002 (ip), vehicle: saline with Tween-80 98 % of control | endpoint: mean survival time, dose: 400.0 mg/kg/injection, schedule: Q04DX002 (ip), vehicle: saline with Tween-80 98 % of control

Cc1ccccc1-c1nc2c([nH]1)c(=O)n(C)c(=O)n2C
inactive: endpoint: mean survival time, dose: 12.5 mg/kg/injection, schedule: Q01DX005 (ip), vehicle: distilled water + Tween-80 87 % of control | endpoint: mean survival time, dose: 25.0 mg/kg/injection, schedule: Q01DX005 (ip), vehicle: distilled water + Tween-80 92 % of control and 94 % of control | endpoint: mean survival time, dose: 50.0 mg/kg/injection, schedule: Q01DX005 (ip), vehicle: distilled water + Tween-80 93 % of control and 95 % of control | endpoint: mean survival time, dose: 100.0 mg/kg/injection, schedule: Q01DX005 (ip), vehicle: distilled water + Tween-80 88 % of control | endpoint: mean survival time, dose: 200.0 mg/kg/injection, schedule: Q01DX005 (ip), vehicle: distilled water + Tween-80 88 % of control and 93 % of control | endpoint: mean survival time, dose: 400.0 mg/kg/injection, schedule: Q01DX005 (ip), vehicle: distilled water + Tween-80 90 % of control

OC(c1ccccc1)C1CCN(Cc2ccccc2)CC1 (stereo not given)
inactive: [3] 96 % of control

CC[CH2][Sn]([CH2]CC)([CH2]CC)[O][Sn]([CH2]CC)([CH2]CC)[CH2]CC
inactive: endpoint: mean survival time, dose: 125.0 micrograms/kg/injection, schedule: Q01DX009 (ip), vehicle: saline 95 % of control | endpoint: mean survival time, dose: 250.0 micrograms/kg/injection, schedule: Q01DX009 (ip), vehicle: saline 95 % of control | endpoint: mean survival time, dose: 500.0 micrograms/kg/injection, schedule: Q01DX009 (ip), vehicle: saline 106 % of control | endpoint: mean survival time, dose: 1000.0 micrograms/kg/injection, schedule: Q01DX009 (ip), vehicle: saline 93 % of control

C/C(Cl)=C\CSc1ccccc1
inactive: [4] 100 % of control | endpoint: mean survival time, dose: 200.0 mg/kg/injection, schedule: Q01DX001 (ip), vehicle: saline 100 % of control | endpoint: mean survival time, dose: 400.0 mg/kg/injection, schedule: Q01DX001 (ip), vehicle: saline 101 % of control

ClCCN(Cc1ccccc1)Cc1ccccc1
inactive: endpoint: mean survival time, dose: 3.13 mg/kg/injection, schedule: Q01DX009 (ip), vehicle: saline with Tween-80 100 % of control | endpoint: mean survival time, dose: 6.25 mg/kg/injection, schedule: Q01DX009 (ip), vehicle: saline with Tween-80 102 % of control | [5] 96 % of control

O=C(O)CCN1CCS(=O)(=O)C1=S
inactive: endpoint: mean survival time, dose: 75.0 mg/kg/injection, schedule: Q01DX001 (ip), vehicle: other 101 % of control | endpoint: mean survival time, dose: 150.0 mg/kg/injection, schedule: Q01DX001 (ip), vehicle: other 95 % of control | endpoint: mean survival time, dose: 300.0 mg/kg/injection, schedule: Q01DX001 (ip), vehicle: other 104 % of control

O=C(O)CCC1(CCC(=O)O)OCCO1.[Ag]
inactive: endpoint: mean survival time, dose: 9.5 mg/kg/injection, schedule: Q01DX009 (ip), vehicle: saline sonified 92 % of control | endpoint: mean survival time, dose: 18.75 mg/kg/injection, schedule: Q01DX009 (ip), vehicle: saline with Tween-80 92 % of control | endpoint: mean survival time, dose: 19.0 mg/kg/injection, schedule: Q01DX009 (ip), vehicle: saline sonified 95 % of control | endpoint: mean survival time, dose: 37.5 mg/kg/injection, schedule: Q01DX009 (ip), vehicle: saline with Tween-80 92 % of control | endpoint: mean survival time, dose: 38.0 mg/kg/injection, schedule: Q01DX009 (ip), vehicle: saline sonified 95 % of control

CN=[N+]([O-])C1(OC(C)=O)CCCC1
inactive: endpoint: mean survival time, dose: 50.0 mg/kg/injection, schedule: Q01DX001 (ip), vehicle: saline 110 % of control | [4] 117 % of control

OC(CS)C(c1ccccc1)c1ccccc1 (stereo not given)
inactive: [3] 98 % of control | [6] 93 % of control | [7] 96 % of control

O=[N+]([O-])c1ccc2nc3ccccc3cc2c1
inactive: [3] 92 % of control | [6] 92 % of control | [7] 91 % of control

COc1cc(C=O)ccc1OCc1ccccc1
inactive: [3] 106 % of control | [6] 95 % of control | [7] 113 % of control

[Cl][Sn]([c]1ccccc1)[c]1ccccc1
inactive: endpoint: mean survival time, dose: 6.25 mg/kg/injection, schedule: Q01DX009 (ip), vehicle: saline 97 % of control | [5] 96 % of control | [1] 106 % of control | endpoint: mean survival time, dose: 25.0 mg/kg/injection, schedule: Q01DX009 (ip), vehicle: saline 106 % of control | [8] 94 % of control

O=C1C(=O)c2ccccc2C(O)=C1C(C1=C(O)c2ccccc2C(=O)C1=O)c1ccc(C(C2=C(O)c3ccccc3C(=O)C2=O)C2=C(O)c3ccccc3C(=O)C2=O)cc1
inactive: endpoint: mean survival time, dose: 100.0 mg/kg/injection, schedule: Q01DX009 (ip), vehicle: saline sonified 96 % of control | endpoint: mean survival time, dose: 200.0 mg/kg/injection, schedule: Q01DX009 (ip), vehicle: saline sonified 97 % of control | endpoint: mean survival time, dose: 400.0 mg/kg/injection, schedule: Q01DX009 (ip), vehicle: saline sonified 108 % of control

Cc1ccc(N)c(Br)c1
inactive: endpoint: mean survival time, dose: 25.0 mg/kg/injection, schedule: Q04DX003 (ip), vehicle: saline 111 % of control | [9] 100 % of control | [3] 92 % of control | endpoint: mean survival time, dose: 100.0 mg/kg/injection, schedule: Q04DX003 (ip), vehicle: saline 98 % of control and 100 % of control | [6] 98 % of control

NC1(C(=O)O)CCCC1
inactive: [8] 98 % of control and 110 % of control | endpoint: mean survival time, dose: 50.0 mg/kg/injection, schedule: Q03DX003 (ip), vehicle: saline 110 % of control | [9] 96 % of control | endpoint: mean survival time, dose: 100.0 mg/kg/injection, schedule: Q03DX003 (ip), vehicle: saline 98 % of control | endpoint: mean survival time, dose: 200.0 mg/kg/injection, schedule: Q01DX009 (ip), vehicle: saline 92 % of control and 110 % of control

CCOC(=O)N(N=O)c1ccc2c(c1)C(=O)c1ccccc1-2
inactive: endpoint: mean survival time, dose: 100.0 mg/kg/injection, schedule: Q01DX001 (ip), vehicle: carboxymethylcellulose (CMC) 103 % of control | endpoint: mean survival time, dose: 200.0 mg/kg/injection, schedule: Q01DX001 (ip), vehicle: carboxymethylcellulose (CMC) 97 % of control | endpoint: mean survival time, dose: 400.0 mg/kg/injection, schedule: Q01DX001 (ip), vehicle: carboxymethylcellulose (CMC) 94 % of control

COc1ccc(CNCCCC2C3CCC(C3)C2CN)cc1 (stereo not given)
inactive: [3] 95 % of control | [6] 95 % of control
